Assay results from ChEMBL document CHEMBL4428075, “New antiproliferative 7-(4-(N-substituted carbamoylmethyl)piperazin-1-yl) derivatives of ciprofloxacin induce cell cycle arrest at G2/M phase” (Bioorg Med Chem, 2016).

Tests used:
SF-268 = assay: Antiproliferative activity against human SF268 cells at 10^-5 M after 48 hrs by SRB assay; assay type: functional; conditions: SF-268, 48 h, read-out: GI
SNB-75 = assay: Antiproliferative activity against human SNB75 cells at 10^-5 M after 48 hrs by SRB assay; assay type: functional; conditions: SNB-75, 48 h, read-out: GI
SF-295 = assay: Antiproliferative activity against human SF295 cells at 10^-5 M after 48 hrs by SRB assay; assay type: functional; conditions: SF-295, 48 h, read-out: GI
M14 = assay: Antiproliferative activity against human M14 cells at 10^-5 M after 48 hrs by SRB assay; assay type: functional; conditions: M14, 48 h, read-out: GI
OVCAR-8 = assay: Antiproliferative activity against human OVCAR8 cells at 10^-5 M after 48 hrs by SRB assay; assay type: functional; conditions: OVCAR-8, 48 h, read-out: GI
SN12C = assay: Antiproliferative activity against human SN12C cells at 10^-5 M after 48 hrs by SRB assay; assay type: functional; conditions: read-out: GI
U-251 = assay: Antiproliferative activity against human U251 cells at 10^-5 M after 48 hrs by SRB assay; assay type: functional; conditions: U-251, 48 h, read-out: GI
ACHN = assay: Antiproliferative activity against human ACHN cells at 10^-5 M after 48 hrs by SRB assay; assay type: functional; conditions: read-out: GI
HCT-15 = assay: Antiproliferative activity against human HCT15 cells at 10^-5 M after 48 hrs by SRB assay; assay type: functional; conditions: HCT-15, 48 h, read-out: GI
NCI-H460 = assay: Antiproliferative activity against human NCI-H460 cells at 10^-5 M after 48 hrs by SRB assay; assay type: functional; conditions: NCI-H460, 48 h, read-out: GI
UO-31 = assay: Antiproliferative activity against human UO31 cells at 10^-5 M after 48 hrs by SRB assay; assay type: functional; conditions: UO-31, 48 h, read-out: GI
NCI-H522 = assay: Antiproliferative activity against human NCI-H522 cells at 10^-5 M after 48 hrs by SRB assay; assay type: functional; conditions: NCI-H522, 48 h, read-out: GI
OVCAR-5 = assay: Antiproliferative activity against human OVCAR5 cells at 10^-5 M after 48 hrs by SRB assay; assay type: functional; conditions: OVCAR-5, 48 h, read-out: GI
UACC-62 = assay: Antiproliferative activity against human UACC62 cells at 10^-5 M after 48 hrs by SRB assay; assay type: functional; conditions: UACC-62, 48 h, read-out: GI
A549 = assay: Antiproliferative activity against human A549 cells at 10^-5 M after 48 hrs by SRB assay; assay type: functional; conditions: A549, 48 h, read-out: GI
A498 = assay: Antiproliferative activity against human A498 cells at 10^-5 M after 48 hrs by SRB assay; assay type: functional; conditions: A498, 48 h, read-out: GI
Malme-3M = assay: Antiproliferative activity against human MALME-3M cells at 10^-5 M after 48 hrs by SRB assay; assay type: functional; conditions: read-out: GI
CCRF-CEM = assay: Antiproliferative activity against human CCRF-CEM cells at 10^-5 M after 48 hrs by SRB assay; assay type: functional; conditions: read-out: GI
SK-OV-3 = assay: Antiproliferative activity against human SKOV3 cells at 10^-5 M after 48 hrs by SRB assay; assay type: functional; conditions: SK-OV-3, 48 h, read-out: GI
IGROV-1 = assay: Antiproliferative activity against human IGROV1 cells at 10^-5 M after 48 hrs by SRB assay; assay type: functional; conditions: IGROV-1, 48 h, read-out: GI
SK-MEL-28 = assay: Antiproliferative activity against human SK-MEL-28 cells at 10^-5 M after 48 hrs by SRB assay; assay type: functional; conditions: SK-MEL-28, 48 h, read-out: GI
EKVX = assay: Antiproliferative activity against human EKVX cells at 10^-5 M after 48 hrs by SRB assay; assay type: functional; conditions: read-out: GI
HCT-116 = assay: Antiproliferative activity against human HCT116 cells at 10^-5 M after 48 hrs by SRB assay; assay type: functional; conditions: HCT-116, 48 h, read-out: GI
NCI-H23 = assay: Antiproliferative activity against human NCI-H23 cells at 10^-5 M after 48 hrs by SRB assay; assay type: functional; conditions: NCI-H23, 48 h, read-out: GI
OVCAR-3 = assay: Antiproliferative activity against human OVCAR3 cells at 10^-5 M after 48 hrs by SRB assay; assay type: functional; conditions: OVCAR-3, 48 h, read-out: GI
SK-MEL-2 = assay: Antiproliferative activity against human SK-MEL-2 cells at 10^-5 M after 48 hrs by SRB assay; assay type: functional; conditions: SK-MEL-2, 48 h, read-out: GI
NCI/ADR-RES = assay: Antiproliferative activity against human NCI-ADR-RES cells at 10^-5 M after 48 hrs by SRB assay; assay type: functional; conditions: read-out: GI
HT-29 = assay: Antiproliferative activity against human HT-29 cells at 10^-5 M after 48 hrs by SRB assay; assay type: functional; conditions: HT-29, 48 h, read-out: GI
WI-38 = assay: Antiproliferative activity against human WI38 cells after 24 hrs by BrdU incorporation assay; assay type: cell-based; conditions: WI-38, 24 h
RPMI-8226 = assay: Antiproliferative activity against human RPMI8226 cells at 10^-5 M after 48 hrs by SRB assay; assay type: functional; conditions: RPMI-8226, 48 h, read-out: GI
786-0 = assay: Antiproliferative activity against human 786-0 cells at 10^-5 M after 48 hrs by SRB assay; assay type: functional; conditions: 786-0, 48 h, read-out: GI
SNB-19 = assay: Antiproliferative activity against human SNB19 cells at 10^-5 M after 48 hrs by SRB assay; assay type: functional; conditions: SNB-19, 48 h, read-out: GI
OVCAR-4 = assay: Antiproliferative activity against human OVCAR4 cells at 10^-5 M after 48 hrs by SRB assay; assay type: functional; conditions: OVCAR-4, 48 h, read-out: GI
T47D = assay: Antiproliferative activity against human T47D cells at 10^-5 M after 48 hrs by SRB assay; assay type: functional; conditions: read-out: GI
MDA-MB-231 = assay: Antiproliferative activity against human MDA-MB-231 cells at 10^-5 M after 48 hrs by SRB assay; assay type: functional; conditions: MDA-MB-231, 48 h, read-out: GI
MDA-MB-468 = assay: Antiproliferative activity against human MDA-MB-468 cells at 10^-5 M after 48 hrs by SRB assay; assay type: functional; conditions: MDA-MB-468, 48 h, read-out: GI
K562 = assay: Antiproliferative activity against human K562 cells at 10^-5 M after 48 hrs by SRB assay; assay type: functional; conditions: K562, 48 h, read-out: GI
MCF7 = assay: Antiproliferative activity against human MCF7 cells at 10^-5 M after 48 hrs by SRB assay; assay type: functional; conditions: MCF7, 48 h, read-out: GI
COLO 205 = assay: Antiproliferative activity against human COLO205 cells at 10^-5 M after 48 hrs by SRB assay; assay type: functional; conditions: COLO 205, 48 h, read-out: GI
SR = assay: Antiproliferative activity against human SR cells at 10^-5 M after 48 hrs by SRB assay; assay type: functional; conditions: read-out: GI

Compound	inhibition of growth at 10 µM (SF-268) [%]	inhibition of growth at 10 µM (SNB-75) [%]	inhibition of growth at 10 µM (SF-295) [%]	inhibition of growth at 10 µM (M14) [%]	inhibition of growth at 10 µM (OVCAR-8) [%]	inhibition of growth at 10 µM (SN12C) [%]	inhibition of growth at 10 µM (U-251) [%]	inhibition of growth at 10 µM (ACHN) [%]	inhibition of growth at 10 µM (HCT-15) [%]	inhibition of growth at 10 µM (NCI-H460) [%]	inhibition of growth at 10 µM (UO-31) [%]	inhibition of growth at 10 µM (NCI-H522) [%]	inhibition of growth at 10 µM (OVCAR-5) [%]	inhibition of growth at 10 µM (UACC-62) [%]	inhibition of growth at 10 µM (A549) [%]	inhibition of growth at 10 µM (A498) [%]	inhibition of growth at 10 µM (Malme-3M) [%]	inhibition of growth at 10 µM (CCRF-CEM) [%]	inhibition of growth at 10 µM (SK-OV-3) [%]	inhibition of growth at 10 µM (IGROV-1) [%]	other results
O=C(CN1CCN(c2cc3c(cc2F)c(=O)c(C(=O)O)cn3C2CC2)CC1)Nc1ccc(Cl)cc1	8.82	20.3	12.1	18.2	21.2	9.89	55.8	46.8	17	12.1	92.8	114	0	36.4	30.8	31.4	8.25	23.6	36.6	6.22	inhibition of growth at 10 µM (SK-MEL-28): 12.9%; inhibition of growth at 10 µM (EKVX): 6.62%; inhibition of growth at 10 µM (HCT-116): 26.9%; inhibition of growth at 10 µM (NCI-H23): 5.51%; inhibition of growth at 10 µM (OVCAR-3): 7.56%; inhibition of growth at 10 µM (SK-MEL-2): 5.16%; inhibition of growth at 10 µM (NCI/ADR-RES): 0%; inhibition of growth at 10 µM (HT-29): 42.1%; IC50 (WI-38): > 100 µM; inhibition of growth at 10 µM (RPMI-8226): 27.8%; inhibition of growth at 10 µM (786-0): 29.9%; inhibition of growth at 10 µM (SNB-19): 16.9%; inhibition of growth at 10 µM (OVCAR-4): 14.7%; inhibition of growth at 10 µM (T47D): 40.9%; inhibition of growth at 10 µM (MDA-MB-231): 39.8%; inhibition of growth at 10 µM (MDA-MB-468): 14%; inhibition of growth at 10 µM (K562): 31.9%; inhibition of growth at 10 µM (MCF7): 5.73%; inhibition of growth at 10 µM (COLO 205): 0.11%; inhibition of growth at 10 µM (SR): 28.9%
COc1ccc(NC(=O)CN2CCN(c3cc4c(cc3F)c(=O)c(C(=O)O)cn4C3CC3)CC2)cc1	6.72	12	2.32	8.75	6	4	5.8	0	0	6.32	17.8	12.9	0	10.5	7.18	37.6	5.64	0	17	0	inhibition of growth at 10 µM (SK-MEL-28): 2.72%; inhibition of growth at 10 µM (EKVX): 0%; inhibition of growth at 10 µM (HCT-116): 9.38%; inhibition of growth at 10 µM (NCI-H23): 7.04%; inhibition of growth at 10 µM (OVCAR-3): 0%; inhibition of growth at 10 µM (SK-MEL-2): 0%; inhibition of growth at 10 µM (NCI/ADR-RES): 0%; inhibition of growth at 10 µM (HT-29): 0.04%; IC50 (WI-38): > 100 µM; inhibition of growth at 10 µM (RPMI-8226): 3.36%; inhibition of growth at 10 µM (786-0): 20.9%; inhibition of growth at 10 µM (SNB-19): 12.3%; inhibition of growth at 10 µM (OVCAR-4): 0%; inhibition of growth at 10 µM (T47D): 24.5%; inhibition of growth at 10 µM (MDA-MB-231): 13.8%; inhibition of growth at 10 µM (MDA-MB-468): 6.39%; inhibition of growth at 10 µM (K562): 5.67%; inhibition of growth at 10 µM (MCF7): 0%; inhibition of growth at 10 µM (COLO 205): 2.63%; inhibition of growth at 10 µM (SR): 0%
COc1cc(NC(=O)CN2CCN(c3cc4c(cc3F)c(=O)c(C(=O)O)cn4C3CC3)CC2)cc(OC)c1OC	0	0	0	0	0	2.78	0	0	0	0	0	24.4	0	0.79	0	0	0	23.2	5.77	0	inhibition of growth at 10 µM (SK-MEL-28): 0%; inhibition of growth at 10 µM (EKVX): 0%; inhibition of growth at 10 µM (HCT-116): 0%; inhibition of growth at 10 µM (NCI-H23): 0%; inhibition of growth at 10 µM (OVCAR-3): 6.06%; inhibition of growth at 10 µM (SK-MEL-2): 7.36%; inhibition of growth at 10 µM (NCI/ADR-RES): 0%; inhibition of growth at 10 µM (HT-29): 1.21%; IC50 (WI-38): > 100 µM; inhibition of growth at 10 µM (RPMI-8226): 2.8%; inhibition of growth at 10 µM (786-0): 15.2%; inhibition of growth at 10 µM (SNB-19): 0%; inhibition of growth at 10 µM (OVCAR-4): 0%; inhibition of growth at 10 µM (T47D): 9.38%; inhibition of growth at 10 µM (MDA-MB-231): 0%; inhibition of growth at 10 µM (MDA-MB-468): 0%; inhibition of growth at 10 µM (K562): 2.65%; inhibition of growth at 10 µM (MCF7): 0%; inhibition of growth at 10 µM (COLO 205): 0%; inhibition of growth at 10 µM (SR): 0%
